# Results: ChEMBL document CHEMBL1158948, “[Isolation and synthesis of espintanol, a new antiparasitic monoterpene]” (J Nat Prod, 1991)
# Columns and labels:
# [1] = system: Leishmania chagasi; test: Antileishmanial activity against Leishmania donovani chagasi after 48 hrs; format: functional
# [2] = system: Leishmania braziliensis; test: Antileishmanial activity against Leishmania (Viannia) braziliensis after 48 hrs; format: functional
# [3] = system: Leishmania amazonensis; test: Antileishmanial activity against Leishmania mexicana amazonensis after 48 hrs; format: functional
# [4] = system: Trypanosoma cruzi; test: Antitrypanosomal activity against Trypanosoma cruzi Tulahuen after 48 hrs; format: functional
# [5] = system: Trypanosoma cruzi; test: Antitrypanosomal activity against Trypanosoma cruzi C8CL1 after 48 hrs; format: functional
# [6] = system: Trypanosoma cruzi; test: Antitrypanosomal activity against Trypanosoma cruzi 27R27CL1 after 48 hrs; format: functional
# [7] = system: Trypanosoma cruzi; test: Antitrypanosomal activity against Trypanosoma cruzi Z1 after 48 hrs; format: functional
# [8] = system: Trypanosoma cruzi; test: Antitrypanosomal activity against Trypanosoma cruzi Z2 after 48 hrs; format: functional
# [9] = system: Trypanosoma cruzi; test: Antitrypanosomal activity against Trypanosoma cruzi Z2CL4 after 48 hrs; format: functional
# [10] = system: Trypanosoma cruzi; test: Antitrypanosomal activity against Trypanosoma cruzi 13379 CL3 after 48 hrs; format: functional
# [11] = system: Trypanosoma cruzi; test: Antitrypanosomal activity against Trypanosoma cruzi 13379 CL5 after 48 hrs; format: functional
# [12] = system: Trypanosoma cruzi; test: Antitrypanosomal activity against Trypanosoma cruzi 13379 CL6 after 48 hrs; format: functional
# [13] = system: Trypanosoma cruzi; test: Antitrypanosomal activity against Trypanosoma cruzi 13379 CL8 after 48 hrs; format: functional
# [14] = system: Trypanosoma cruzi; test: Antitrypanosomal activity against Trypanosoma cruzi C8 CL1 after 48 hrs; format: functional
# [15] = system: Trypanosoma cruzi; test: Antitrypanosomal activity against Trypanosoma cruzi A98CL5 after 48 hrs; format: functional
# [16] = system: Trypanosoma cruzi; test: Antitrypanosomal activity against Trypanosoma cruzi MIL4CL10 after 48 hrs; format: functional
# [17] = system: Trypanosoma cruzi; test: Antitrypanosomal activity against Trypanosoma cruzi M6241CL6 after 48 hrs; format: functional
# [18] = system: Trypanosoma cruzi; test: Antitrypanosomal activity against Trypanosoma cruzi 9280CL1 after 48 hrs; format: functional
# [19] = system: Trypanosoma cruzi; test: Antitrypanosomal activity against Trypanosoma cruzi CL after 48 hrs; format: functional
# [20] = system: Trypanosoma cruzi; test: Antitrypanosomal activity against Trypanosoma cruzi Y after 48 hrs; format: functional
# [21] = system: Trypanosoma cruzi; test: Antitrypanosomal activity against Trypanosoma cruzi A99CL7 after 48 hrs; format: functional
# [22] = system: Trypanosoma cruzi; test: Antitrypanosomal activity against Trypanosoma cruzi R107 after 48 hrs; format: functional
# [23] = system: Trypanosoma cruzi; test: Antitrypanosomal activity against Trypanosoma cruzi TeCL2 after 48 hrs; format: functional
# [24] = system: Trypanosoma cruzi; test: Antitrypanosomal activity against Trypanosoma cruzi 31R16CL1 after 48 hrs; format: functional
# [25] = system: Leishmania braziliensis; test: Antileishmanial activity against Leishmania (Viannia) braziliensis 2904 after 48 hrs; format: functional
# [26] = system: Leishmania guyanensis; test: Antileishmanial activity against Leishmania (Viannia) guyanensis M4147 after 48 hrs; format: functional
# [27] = system: Leishmania peruviana; test: Antileishmanial activity against Leishmania (Viannia) peruviana PERU after 48 hrs; format: functional
# [28] = system: Leishmania mexicana mexicana; test: Antileishmanial activity against Leishmania mexicana mexicana BEL21 after 48 hrs; format: functional
# [29] = system: Leishmania amazonensis; test: Antileishmanial activity against Leishmania mexicana amazonensis PH8 after 48 hrs; format: functional
# [30] = system: Leishmania pifanoi; test: Antileishmanial activity against Leishmania pifanoi LL1 after 48 hrs; format: functional
# [31] = system: Leishmania aristidesi; test: Antileishmanial activity against Leishmania mexicana […] 6331 after 48 hrs; format: functional
# [32] = system: Leishmania garnhami; test: Antileishmanial activity against Leishmania mexicana garnhami JAP78 after 48 hrs; format: functional
# [33] = system: Leishmania mexicana venezuelensis; test: Antileishmanial activity against Leishmania mexicana venezuelensis PM H3 after 48 hrs; format: functional
# [34] = system: Leishmania donovani donovani; test: Antileishmanial activity against Leishmania donovani donovani HS 70 after 48 hrs; format: functional
# [35] = system: Leishmania chagasi; test: Antileishmanial activity against Leishmania donovani chagasi LEM 379 after 48 hrs; format: functional
# [36] = system: Leishmania infantum; test: Antileishmanial activity against Leishmania donovani infantum LEM 209 after 48 hrs; format: functional, LEM209
# [37] = system: Mus musculus; test: Toxicity in BALB/c mouse at 800 mg/kg, ip after 72 hrs; format: organism-based; parameters: dose 800 mg/kg, route intraperitoneal; conditions: in vivo
Compound,IC90 [1],IC90 [2],IC90 [3],IC90 [4],IC90 [5],IC90 [6],IC90 [7],IC90 [8],IC90 [9],IC90 [10],IC90 [11],IC90 [12],IC90 [13],IC90 [14],IC90 [15],IC90 [16],IC90 [17],IC90 [18],IC90 [19],IC90 [20],further results
COc1cc(C)c(OC)c(OC)c1C(C)C,> 100 µg/mL,> 100 µg/mL,> 100 µg/mL,> 100 µg/mL,> 100 µg/mL,> 100 µg/mL,–,–,–,–,–,–,–,–,–,–,–,–,–,–,–
O=C(Cn1ccnc1[N+](=O)[O-])NCc1ccccc1 [BENZNIDAZOLE],–,–,–,50 µg/mL,–,100 µg/mL,100 µg/mL,100 µg/mL,100 µg/mL,> 100 µg/mL,100 µg/mL,> 100 µg/mL,> 100 µg/mL,100 µg/mL,100 µg/mL,25 µg/mL,> 100 µg/mL,50 µg/mL,100 µg/mL,25 µg/mL,IC90 [21]: 100 µg/mL; IC90 [22]: 50 µg/mL; IC90 [23]: 25 µg/mL; IC90 [24]: 100 µg/mL
CC1CS(=O)(=O)CCN1/N=C/c1ccc([N+](=O)[O-])o1 (configuration not stated) [NIFURTIMOX],–,–,–,25 µg/mL,–,100 µg/mL,50 µg/mL,25 µg/mL,50 µg/mL,> 100 µg/mL,100 µg/mL,> 100 µg/mL,50 µg/mL,25 µg/mL,100 µg/mL,50 µg/mL,50 µg/mL,50 µg/mL,100 µg/mL,25 µg/mL,IC90 [21]: 25 µg/mL; IC90 [22]: 25 µg/mL; IC90 [23]: 25 µg/mL; IC90 [24]: 100 µg/mL
N=C(N)c1ccc(OCCCCCOc2ccc(C(=N)N)cc2)cc1 [PENTAMIDINE],–,–,–,–,–,–,–,–,–,–,–,–,–,–,–,–,–,–,–,–,IC90 [25]: 1 µg/mL; IC90 [26]: 5 µg/mL; IC90 [27]: 5 µg/mL; IC90 [28]: 1 µg/mL; IC90 [29]: 1 µg/mL; IC90 [30]: 1 µg/mL; IC90 [31]: 1 µg/mL; IC90 [32]: 1 µg/mL; IC90 [33]: 5 µg/mL; IC90 [34]: 1 µg/mL; IC90 [35]: 1 µg/mL; IC90 [36]: 1 µg/mL
MEGLUMINE ANTIMONATE,–,–,–,–,–,–,–,–,–,–,–,–,–,–,–,–,–,–,–,–,IC90 [28]: > 100 µg/mL; IC90 [31]: > 100 µg/mL; IC90 [33]: > 100 µg/mL; IC90 [34]: > 100 µg/mL; IC90 [35]: > 100 µg/mL

# The next lines start with results.
IC90 [1],IC90 [2],IC90 [3],IC90 [4],IC90 [5],IC90 [6],IC90 [7],IC90 [8],IC90 [9],IC90 [10],IC90 [11],IC90 [12],IC90 [13],IC90 [14],IC90 [15],IC90 [16],IC90 [17],IC90 [18],IC90 [19],IC90 [20],Compound,further results
25 µg/mL,25 µg/mL,25 µg/mL,> 100 µg/mL,> 100 µg/mL,> 100 µg/mL,–,–,–,–,–,–,–,–,–,–,–,–,–,–,COc1cc(C(C)C)ccc1C,–
10 µg/mL,10 µg/mL,25 µg/mL,25 µg/mL,25 µg/mL,25 µg/mL,50 µg/mL,50 µg/mL,100 µg/mL,50 µg/mL,50 µg/mL,100 µg/mL,50 µg/mL,25 µg/mL,> 100 µg/mL,25 µg/mL,> 100 µg/mL,50 µg/mL,> 100 µg/mL,50 µg/mL,COc1cc(C)c(O)c(OC)c1C(C)C [ESPINTANOL],IC90 [25]: 10 µg/mL; IC90 [26]: 25 µg/mL; IC90 [27]: 25 µg/mL; IC90 [28]: 25 µg/mL; IC90 [29]: 25 µg/mL; IC90 [30]: 25 µg/mL; IC90 [31]: 25 µg/mL; IC90 [32]: 25 µg/mL; IC90 [33]: 50 µg/mL; IC90 [34]: 50 µg/mL; IC90 [35]: 25 µg/mL; IC90 [36]: 25 µg/mL; Activity [37]: Active; IC90 [21]: 25 µg/mL; IC90 [22]: 25 µg/mL; IC90 [23]: 25 µg/mL; IC90 [24]: 50 µg/mL
> 100 µg/mL,> 100 µg/mL,> 100 µg/mL,> 100 µg/mL,> 100 µg/mL,> 100 µg/mL,–,–,–,–,–,–,–,–,–,–,–,–,–,–,COc1cc(C(C)C)c(OC)cc1C [THYMOQUINOL DIMETHYLETHER],–
